From patent publication US10669313B2, “Multitarget-directed bio-inorganic hybrid structure” (INDUSTRY-ACADEMIC COOPERATION FOUNDATION, YONSEI UNIVERSITY, priority 2016, dated 2020)

How the values were obtained:
[1] = test system: Rev-mediated RRE export (RRE: Rev: Crm1 interactions); experiment: Nucleocytoplasmic export assay (CAT assay) based on plasmid pDM128 in HeLa cells; type: cell-based, HIV-1; settings: HeLa cells co-transfected with pDM128 and pSV2-Rev
Experimental: Lastly, multitarget-binding and inhibitory capabilities of hetero-SPCHs were examined. To evaluate the inhibition of Rev-mediated RRE export, a nucleocytoplasmic export assay based on plasmid pDM128 expressing RRE (see FIG. 23) was performed.
Referring to FIG. 24, as shown in a chloramphenicol acetyltransferase (CAT) assay (lane 3), co-transfection of pDM128 with pSV2-Rev (Rev-expressing plasmid) in HeLa cells enables an effective nucleocytoplasmic export of RRE RNA. In contrast, negligible CAT activity was observed when the cells were co-transfected with pBluescript KS(+) (negative control plasmid) (lane 2).
In addition, to confirm whether nucleocytoplasmic export mediated by RRE: Rev: Crm1 interactions could be inhibited by peptide-CNT hybrids, the cells were treated with hetero-(A&N)-SPCHs.
HeLa cells were incubated under 5% CO2 at 37° C. in DMEM supplemented with 10% FBS and 1% pen/strep. 4×10^4 of the incubated cells were distributed into a 48-well plate, and then incubated under 5% CO2 at 37° C. overnight. Subsequently, the resulting cells were washed with DPBS, and then a plasmid (total 250 ng; pDM128, pBluescript II KS (+), pSV2-Rev) complexed with 0.7 μL of a jetPEI DNA transfection reagent was added to each well. […]
The samples were normalized with the concentrations of proteins measured by a BCA assay (BCA protein assay kit; Pierce, USA). […]

[2] = test system: cyc-ARM peptide on SWCNT (homo-ARM-SPCH) (HIV-1 (Rev ARM, synthetic)); experiment: competition; settings: hybrid concentration for complete exchange of 6 uM Rev from 100 nM RRE by EMSA; stated about 10,000 times stronger RRE binding than Rev

CCC(=C/[C@H](C)C/C=C/C(C)=C/[C@@H](C)C(=O)[C@@H](C)[C@H](O)[C@@H](C)C/C(C)=C/C(=O)O)/C=C/[C@@H]1OC(=O)C=C[C@@H]1C [LMB, leptomycin B]
concentration required to completely inhibit the RRE export [1]: 100 nM

GGGCGAAUUGGAGCUCGCUAUGUUCCUUGGGUUCUUGGGAGCAGCAGGAAGCACUAUGGGCGCAGUGUCAUUGACGCUGACGGUACAGGCCAGACAAUUAUUGUCUGGUAUAGUGCAACAGCAGAACAAUUUGCUGAGGGCUAUUGAGGCGCAACAACAUCUGUUGCAACUCACAGUCUGGGGCAUCAAGCAGCUCCAGGCAAGAGUCCUGGCUGUGGAAAGAUACCUAAGGGAUCAACAGCUCCUAGGGAUG [full-length RRE RNA transcript (253 nt)]
binding [2]: 600 pM
